According to ChEMBL document CHEMBL1146036, “Structural determinants of opioid activity in derivatives of 14-aminomorphinones: effect of substitution in the aromatic ring of cinnamoylaminomorphinones and codeinones” (J Med Chem, 2006):

What was measured:
Mus musculus [1] = experiment: Agonist activity in mouse by hot water tail withdrawal assay at 32 mg/kg, sc; type: functional; settings: route subcutaneous
Mus musculus [2] = experiment: Agonist activity in sc dosed mouse by tail flick assay; type: functional
[3] = biological target: T1, Kappa-type opioid receptor (Homo sapiens, UniProt P41145); settings: CHO
Description: Reversal of stimulation of [35S]GTPgammaS binding to human recombinant KOR transfected in CHO cells relative to U69593

Mus musculus [4] = experiment: Antagonist activity against morphine-induced antinociception in sc dosed mouse by hot water tail withdrawal assay at 32 mg/kg, sc; type: functional; parameters: scale not given: the % may be the effect or the level left; settings: route subcutaneous
Mu-type opioid receptor [5] = biological target: T2, Mu-type opioid receptor (Homo sapiens, UniProt P35372); experiment: Reversal of stimulation of [35S]GTP-gamma-S binding to human recombinant MOR transfected in CHO cells relative to DAMGO; type: functional, cell-based
[6] = biological target: T3, Delta-type opioid receptor (Homo sapiens, UniProt P41143); settings: CHO
Description: Reversal of stimulation of [35S]GTP-gamma-S binding to human recombinant DOR transfected in CHO cells relative to DPDPE

[7] = biological target: T3, Delta-type opioid receptor; experiment: Displacement of [3H]Cl-DPDPE from human recombinant DOR expressed in CHO cells; type: cell-based
Mu-type opioid receptor [8] = biological target: T2, Mu-type opioid receptor; experiment: Displacement of [3H]DAMGO from human recombinant MOR expressed in CHO cells; type: cell-based
[9] = biological target: T1, Kappa-type opioid receptor; experiment: biochemical; type: cell-based, CHO
Description: Displacement of [3H]U-69593 from human recombinant KOR expressed in CHO cells

Mus musculus [10] = experiment: Antagonist activity against morphine-induced antinociception in sc dosed mouse by tail flick assay at 3 mg/kg, sc; type: functional; settings: route subcutaneous
Mus musculus [11] = experiment: Agonist activity in sc dosed mouse by phenylquinone abdominal stretching assay; type: functional; settings: Abdomen
[12] = biological target: T3, Delta-type opioid receptor; experiment: Stimulation of [35S]GTP-gamma-S binding to human recombinant DOR; type: functional
[13] = biological target: T1, Kappa-type opioid receptor; experiment: Stimulation of [35S]GTP-gamma-S binding to human recombinant KOR; type: functional
[14] = biological target: T3, Delta-type opioid receptor; experiment: Stimulation of [35S]GTPgammaS binding to human recombinant DOR relative to DPDPE; type: functional
Mu-type opioid receptor [15] = biological target: T2, Mu-type opioid receptor; experiment: Stimulation of [35S]GTPgammaS binding to human recombinant MOR; type: functional
Mus musculus [16] = experiment: Antagonist activity against morphine-induced antinociception in sc dosed mouse by tail flick assay; type: functional
Mus musculus [17] = experiment: Agonist activity in sc dosed mouse by hot water tail withdrawal assay at 10 mg/kg, sc; type: functional; settings: route subcutaneous
Mus musculus [18] = experiment: Agonist activity in mouse by phenylquinone abdominal stretching assay at 30 mg/kg, sc; type: functional; settings: Abdomen, route subcutaneous
[19] = biological target: T1, Kappa-type opioid receptor; experiment: Activity at human recombinant KOR transfected in CHO cells assessed as reversal of stimulation of [35S]GTPgammaS binding; type: functional, cell-based; settings: filed as antagonist
Mu-type opioid receptor [20] = biological target: T2, Mu-type opioid receptor; experiment: Activity at human recombinant MOR transfected in CHO cells assessed as reversal of stimulation of [35S]GTP-gamma-S binding; type: functional, cell-based; settings: filed as antagonist
[21] = biological target: T3, Delta-type opioid receptor; experiment: Activity at human recombinant DOR transfected in CHO cells assessed as reversal of stimulation of [35S]GTP-gamma-S binding; type: functional, cell-based
Mus musculus [22] = experiment: Agonist activity in mouse by phenylquinone abdominal stretching assay at 0.3 mg/kg, sc; type: functional; settings: Abdomen, route subcutaneous
Mus musculus [23] = experiment: Agonist activity in mouse by phenylquinone abdominal stretching assay at 1 mg/kg, sc; type: functional; settings: Abdomen, route subcutaneous
Mu-type opioid receptor [24] = biological target: Mu-type opioid receptor (Cavia porcellus, UniProt P97266); experiment: Binding affinity to MOR in guinea pig brain membrane; type: cell membranes
Mus musculus [25] = experiment: Agonist activity in sc dosed mouse by hot water tail withdrawal assay at 1 mg/kg, sc; type: functional; settings: route subcutaneous
[26] = biological target: Kappa-type opioid receptor (Cavia porcellus, UniProt P41144); experiment: Binding affinity to KOR in guinea pig brain membrane; type: cell membranes
Sequence of Kappa-type opioid receptor (Cavia porcellus, UniProt P41144) (P41144 whole entry): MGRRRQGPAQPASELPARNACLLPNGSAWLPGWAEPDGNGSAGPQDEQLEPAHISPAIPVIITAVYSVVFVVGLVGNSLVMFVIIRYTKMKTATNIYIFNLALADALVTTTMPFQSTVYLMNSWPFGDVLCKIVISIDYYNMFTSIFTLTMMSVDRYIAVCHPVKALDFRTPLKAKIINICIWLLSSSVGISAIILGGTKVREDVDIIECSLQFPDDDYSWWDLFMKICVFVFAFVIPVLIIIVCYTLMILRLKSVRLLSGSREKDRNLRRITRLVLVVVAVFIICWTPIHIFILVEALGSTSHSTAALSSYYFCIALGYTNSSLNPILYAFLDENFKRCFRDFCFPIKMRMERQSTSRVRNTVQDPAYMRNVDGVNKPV

T3 sequence (P41143 whole entry): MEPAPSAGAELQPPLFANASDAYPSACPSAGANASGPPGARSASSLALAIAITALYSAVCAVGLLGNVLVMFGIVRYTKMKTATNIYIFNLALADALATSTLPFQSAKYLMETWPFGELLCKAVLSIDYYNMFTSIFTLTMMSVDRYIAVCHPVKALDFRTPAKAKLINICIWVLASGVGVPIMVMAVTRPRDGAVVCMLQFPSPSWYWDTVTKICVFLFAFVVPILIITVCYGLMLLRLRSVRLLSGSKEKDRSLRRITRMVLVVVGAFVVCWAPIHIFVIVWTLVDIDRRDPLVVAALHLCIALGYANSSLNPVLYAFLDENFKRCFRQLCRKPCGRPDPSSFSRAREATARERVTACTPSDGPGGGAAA
T2 sequence (P35372 whole entry): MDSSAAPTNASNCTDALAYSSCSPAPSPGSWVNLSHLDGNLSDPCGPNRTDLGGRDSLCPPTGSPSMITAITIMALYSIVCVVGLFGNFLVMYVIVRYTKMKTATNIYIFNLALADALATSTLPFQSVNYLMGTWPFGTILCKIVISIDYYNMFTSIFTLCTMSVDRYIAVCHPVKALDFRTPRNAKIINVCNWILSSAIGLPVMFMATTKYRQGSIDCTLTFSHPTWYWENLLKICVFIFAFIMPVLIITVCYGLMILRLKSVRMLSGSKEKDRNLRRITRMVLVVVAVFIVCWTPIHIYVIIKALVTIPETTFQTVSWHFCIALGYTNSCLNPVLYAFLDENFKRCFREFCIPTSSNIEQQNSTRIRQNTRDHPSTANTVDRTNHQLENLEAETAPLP
T1 sequence (P41145 whole entry): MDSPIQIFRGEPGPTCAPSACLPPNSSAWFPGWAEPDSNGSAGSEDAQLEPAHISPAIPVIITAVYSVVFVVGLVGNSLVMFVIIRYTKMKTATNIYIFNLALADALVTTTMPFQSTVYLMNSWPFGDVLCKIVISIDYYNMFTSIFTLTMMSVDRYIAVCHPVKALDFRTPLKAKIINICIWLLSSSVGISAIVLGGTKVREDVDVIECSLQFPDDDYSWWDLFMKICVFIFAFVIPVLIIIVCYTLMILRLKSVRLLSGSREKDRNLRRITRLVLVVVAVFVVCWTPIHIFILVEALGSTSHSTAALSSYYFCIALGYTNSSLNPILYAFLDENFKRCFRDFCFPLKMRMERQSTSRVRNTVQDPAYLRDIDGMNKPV
Sequence of Mu-type opioid receptor (Cavia porcellus, UniProt P97266) (P97266 whole entry): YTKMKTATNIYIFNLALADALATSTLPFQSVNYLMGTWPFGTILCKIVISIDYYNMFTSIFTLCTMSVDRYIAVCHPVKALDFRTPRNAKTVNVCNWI

| SMILES | Activity (Mus musculus [1]) [%] | ED50 (Mus musculus [2]) [mg/kg] | Activity (Mus musculus [4]) [%] | Ki [7] [nM] | Ki (Mu-type opioid receptor [8]) [nM] | Ki [9] [nM] | ED50 (Mus musculus [11]) [mg/kg] | EC50 [12] [nM] | EC50 [13] [nM] | Activity [14] [%] | EC50 (Mu-type opioid receptor [15]) [nM] | AD50 (Mus musculus [16]) [mg/kg] | also measured |
| --- | --- | --- | --- | --- | --- | --- | --- | --- | --- | --- | --- | --- | --- |
| COc1ccc2c3c1O[C@H]1C(=O)CC[C@@]4(NC(=O)/C=C/c5ccccc5[N+](=O)[O-])[C@@H](C2)N(CC2CC2)CC[C@]314 | 40 |  |  |  |  |  |  |  |  |  |  |  |  |
| Cc1ccccc1/C=C/C(=O)N[C@@]12CCC(=O)[C@@H]3Oc4c(O)ccc5c4[C@@]31CCN(CC1CC1)[C@@H]2C5 | 0 | > 30 | 65 | 1.25 | 0.72 | 1.5 | 3.17 |  |  |  |  |  | Ke [3]: 0.16 nM; Ke (Mu-type opioid receptor [5]): 0.29 nM; Ke [6]: 0.4 nM; inhibition in vivo at 3 mg/kg (Mus musculus [10]): 50% |
| COc1ccc2c3c1O[C@H]1C(=O)CC[C@@]4(NC(=O)/C=C/c5ccccc5Cl)[C@@H](C2)N(C)CC[C@]314 |  |  |  | 0.58 | 0.68 | 2.5 |  | 2.2 | 8.5 | 110 | 0.5 |  |  |
| COc1ccc2c3c1O[C@H]1C(=O)CC[C@@]4(NC(=O)/C=C/c5ccccc5C)[C@@H](C2)N(C)CC[C@]314 |  |  |  | 0.42 | 0.4 | 2.3 |  | 4.6 | 5.6 | 108 | 0.5 |  |  |
| CN1CC[C@]23c4c5cccc4O[C@H]2C(=O)CC[C@@]3(NC(=O)/C=C/c2ccccc2Cl)[C@H]1C5 |  | 0.12 |  |  |  |  | 0.04 | 0.1 | 0.1 |  | 0.04 | >30 |  |
| O=C(/C=C/c1ccc([N+](=O)[O-])cc1)N[C@@]12CCC(=O)[C@@H]3Oc4c(O)ccc5c4[C@@]31CCN(CC1CC1)[C@@H]2C5 | 40 |  | >90 |  |  |  |  |  |  |  |  |  |  |
| COc1ccc2c3c1O[C@H]1C(=O)CC[C@@]4(NC(=O)/C=C/c5ccc(C)cc5)[C@@H](C2)N(CC2CC2)CC[C@]314 | 10 | > 30 | 40 |  |  |  | 0.1 |  |  |  |  | 5.7 |  |
| CN1CC[C@]23c4c5ccc(O)c4O[C@H]2C(=O)C=C[C@@]3(NC(=O)/C=C/c2ccc(Cl)cc2)[C@H]1C5 |  | 0.5 |  |  |  |  |  |  |  |  |  | >30 |  |
| COc1ccc2c3c1O[C@H]1C(=O)CC[C@@]4(NC(=O)/C=C/c5ccc([N+](=O)[O-])cc5)[C@@H](C2)N(CC2CC2)CC[C@]314 |  |  | 40 |  |  |  |  |  |  |  |  |  | Activity (Mus musculus [17]): >90% |
| CN1CC[C@]23c4c5ccc(O)c4O[C@H]2C(=O)CC[C@@]3(NC(=O)/C=C/c2ccc([N+](=O)[O-])cc2)[C@H]1C5 |  |  |  | 0.54 | 0.2 | 5.5 |  |  |  |  |  |  | Ke [3]: 3.3 nM; Ke (Mu-type opioid receptor [5]): 0.13 nM; Ke [6]: 1.4 nM |
| O=C(/C=C/c1ccc(Cl)cc1)N[C@@]12CCC(=O)[C@@H]3Oc4c(O)ccc5c4[C@@]31CCN(CC1CC1)[C@@H]2C5 [CLOCINNAMOX] | 0 | > 30 | >90 | 2.7 | 2.98 | 1.4 |  |  |  |  |  | 0.12 | Ke [3]: 0.1 nM; Ke (Mu-type opioid receptor [5]): 0.53 nM; Ke [6]: 0.19 nM; inhibition in vivo at 30 mg/kg (Mus musculus [18]): 69% |
| COc1ccc2c3c1O[C@H]1C(=O)CC[C@@]4(NC(=O)/C=C/c5ccccc5)[C@@H](C2)N(CC2CC2)CC[C@]314 | 40 |  | 65 |  |  |  |  |  |  |  |  |  |  |
| Cc1ccc(CCC(=O)N[C@@]23CCC(=O)[C@@H]4Oc5c(O)ccc6c5[C@@]42CCN(C)[C@@H]3C6)cc1 |  | 0.5 |  | 1.25 | 0.35 | 0.57 | 0.09 |  |  |  |  | >30 | Ke [3]: 4.9 nM; Activity [19]: Antagonist; Ke (Mu-type opioid receptor [5]): 0.32 nM; Ke ([6]; filed as partial agonist): Partial agonist; Activity (Mu-type opioid receptor [20]): Antagonist; Activity ([21]; filed as partial agonist): Partial agonist |
| O=C(/C=C/c1ccccc1Cl)N[C@@]12CCC(=O)[C@@H]3Oc4c(O)ccc5c4[C@@]31CCN(CC1CC1)[C@@H]2C5 | 0 |  | 65 | 1.3 | 0.71 | 2.4 |  |  |  |  |  |  | Ke [3]: 0.38 nM; Ke (Mu-type opioid receptor [5]): 0.45 nM; Ke [6]: 0.67 nM |
| COc1ccc2c3c1O[C@H]1C(=O)CC[C@@]4(NC(=O)/C=C/c5ccc(Cl)cc5)[C@@H](C2)N(CC2CC2)CC[C@]314 | 0 | > 30 | 65 | 4.8 |  |  | 0.2 |  |  |  |  | >6 | Ke [6]: 7.2 nM |
| O=C(/C=C/c1ccccc1)N[C@@]12CCC(=O)[C@@H]3Oc4c(O)ccc5c4[C@@]31CCN(CC1CC1)[C@@H]2C5 | 0 | > 30 | 40 |  |  |  |  |  |  |  |  | 1.3 | inhibition in vivo at 0.3 mg/kg (Mus musculus [22]): 66% |
| COc1ccc2c3c1O[C@H]1C(=O)CC[C@@]4(NC(=O)/C=C/c5ccc(C)cc5)[C@@H](C2)N(C)CC[C@]314 |  | 0.06 |  | 2.9 | 0.49 | 9.9 | 0.4 | 76 | 84 | 86 | 2.5 | >30 |  |
| COc1ccc2c3c1O[C@H]1C(=O)CC[C@@]4(NC(=O)/C=C/c5ccc(Cl)cc5)[C@@H](C2)N(C)CC[C@]314 |  | 0.04 |  | 1 | 0.6 |  | 0.02 | 5 |  | 50 | 0.9 | >30 |  |
| Cc1ccc(/C=C/C(=O)N[C@@]23CCC(=O)[C@@H]4Oc5c(O)ccc6c5[C@@]42CCN(C)[C@@H]3C6)cc1 |  | > 30 |  | 4 | 0.34 | 1.5 |  |  |  |  |  | 0.6 | Ke [3]: 4.1 nM; Activity [19]: Antagonist; Ke (Mu-type opioid receptor [5]): 0.3 nM; Ke [6]: 2.2 nM; inhibition in vivo at 1 mg/kg (Mus musculus [23]): 57%; Activity (Mu-type opioid receptor [20]): Antagonist; Activity ([21]; filed as antagonist): Antagonist |
| COc1ccc2c3c1O[C@H]1C(=O)CC[C@@]4(NC(=O)/C=C/c5ccccc5C)[C@@H](C2)N(CC2CC2)CC[C@]314 |  | 0.03 | 10 |  |  |  | 0.03 | 20.9 | 1.8 | 39 | 2.6 | >30 | Ki (Mu-type opioid receptor [24]): 0.2 nM; Activity (Mus musculus [25]): >90%; Ki [26]: 2.1 nM |
| COc1ccc2c3c1O[C@H]1C(=O)CC[C@@]4(NC(=O)/C=C/c5ccccc5Cl)[C@@H](C2)N(CC2CC2)CC[C@]314 |  |  | 10 |  |  |  |  | 17.5 | 9 | 36 | 3.8 |  | Ki (Mu-type opioid receptor [24]): 0.6 nM; Activity (Mus musculus [17]): >90%; Ki [26]: 2.4 nM |
| Cc1ccccc1/C=C/C(=O)N[C@@]12CCC(=O)[C@@H]3Oc4c(O)ccc5c4[C@@]31CCN(C)[C@@H]2C5 |  | 0.08 |  | 0.11 | 0.21 | 0.23 | 0.03 | 0.4 | 0.2 | 71 | 0.04 | >30 |  |
